The values below come from patent US12521438B2, “SMARCA degraders and uses thereof” (Kymera Therapeutics, Inc., priority 2019, dated 2026).

Assay [1] addresses SMARCA2 (Homo sapiens, UniProt P51531). Description: MSD SMARCA2 degradation in A549 cell line. The settings on record: A549 cells, 24 hours; for DC50: read-out: SMARCA2 MSD A549 degradation 24h: Average external-Abs DC50. The assay is classed as cell-based. Further details: endogenous in cells; host or cells: A549. The procedure: Example 9. MSD SMARCA2 Degradation in A549 Cell Line
Cells were seeded into 96-well plates (A549 cells: 2×10^4 cells/well/100 ul media) abd incubated overnight. The next day, 200 nl compound were added into the intermediate plate with Echo (Labcyte 550) from source plate containing a 3-fold serial dilution from top concentration of 1 mM. The culture medium was changed with 80 ul of fresh medium and 80 ul of 2× compound solution was added into the well to make a final concentration of 1000 nM, 333.3 nM, 111.1 nM, 37.04 nM, 12.35 nM, 4.115 nM, 1.372 nM, 0.457 nM, 0.152 nM and 0 nM (DMSO). The wells were mixed and then incubated for 24 hours. The media was aspirated from the cultures and 60 ul pre-chilled PIPA lysis buffer (Boston BioProducts BP-115D) with protease/phosphatase inhibitor (Roche 05892791001/Roche 04906837001) was added into the well to lyze the cells for 20 minutes at 4° C. The MSD plate (L15XA) was coated with 40 ul cell lysate and incubated at 4° C. overnight. The next day, the plate was washed three times with TBST (CST #9997S), 150 ul/well. The MSD plates was blocked with 150 ul blocking buffer per well and shaked for 1 hr at RT, 600 rpm. The blocking buffer was 3% Blocker A (MSD, R93BA-4) in TBST. The MSD plate was washed three times with 150 ul/well of TBST and 25 ul/well of detection antibody (Rabbit anti-SMARCA2/BRM antibody, 100 μg/ml, ab223735) was added at final concentration of 1 ug/ml diluted in 1% Blocking buffer and shaken for 1 hour at RT, 600 rpm. The MSD plate was washed three times with 150 ul/well of TBST and 25 ul/well of SULFO-TAG anti-rabbit antibody (MSD, R32AB-1) was added at final concentration of 1 ug/ml diluted in 1% Blocking buffer and shaken for 1 hour at RT, 600 rpm. The MSD plate was washed three times with 150 ul/well of TBST and 150 ul/well of 2×MSD reading buffer diluted from 4× (MSD, R92TC-2) with water was added. Lastly, the MSD instrument was read.

The target in assay [2] is T1, SMARCA4 (Homo sapiens, UniProt P51532).
T1 construct: endogenous in cells; host or cells: MV4-11
In words: SMARCA4 Western blot MV4-11 degradation. The assay is classed as cell-based. The settings on record: MV4-11 cells, 24 hours; for Dmax: read-out: SMARCA4 WB MV411 degradation 24h: Average Dmax %; for DC50: read-out: SMARCA4 WB MV411 degradation 24h: Average external-Abs DC50. The procedure:
Example 10. SMARCA2 and SMARCA 4 Western Blot MV4-11 Degradation
Cells were seeded into 6-well plates (MV4-11: 4×10^6 cells/well/1 ml) and 1 ml of 2× compound solution was added into the well to make the final concentration and the plates were mixed well and incubated for 24 hours (No cytotoxicity was observed). The cell were collected with media and spun at 3000 rpm for 5 minutes. The supernatant was aspirated and the well and the cells were washed with cold PBS once and combined for centrifugation again; the supernatant aspirated again. 200 ul pre-chilled RIPAlysis buffer (Boston BioProducts BP-115D) with protease/phosphatase inhibitor (Roche 05892791001/Roche 04906837001) was directly added into the tube to lyze the cells for 20 minutes on ice. The cell lysate were collected into EP tubes and spun at 13000 rpm for 20 minutes and 72 ul supernatant was transferred to a fresh EP tube containing 18 ul of 5× loading buffer (Beyotime Bio P0015) to make the loading samples. The samples were heated to 100° C. for 10 minutes and cooled to RT and microcentrifuged. 20 ul of samples were loaded onto SDS-PAGE gel (Novex, WG1402BOX) and the gel was run at 80 V for 20 minutes and 120 V for 1.5 hours. The samples were electrotransfer to a NC membrane using wet-transfer method with 250 mA for 2.5 hours. The membrane was blocked with LICOR blocking buffer (LI-COR, 927-50000) for 1 hour. The membrane was washed three times with TBST (CST #9997S), 5 minutes each. Incubation was performed with primary antibody prepared in blocking buffer with 0.1% Tween-20 (Solarbio, P8220) at 4° C. overnight (Anti-SMARCA2/BRM antibody (ab15597) 1:500; Anti-BRG1 antibody [EPR3912] (ab108318) 1:1000; Rabbit anti-Baf180 antibody [EPR15860] (Abcam,ab196022) 1:1000; mouse anti-beta-Actin (8H10D10) (CST #3700) 1:10000). The membrane was washed three times with TBST, 5 minutes each. Incubation with secondary antibody was performed for 1 hour at RT (anti-rabbit IgG (Licor, 926-32211) 1:5000; anti-mouse IgG (LI-COR, 926-68070) 1:5000). The membrane was washed three times with 5 minutes each and lastly the LiCOR was read.

T1 sequence (P51532 whole entry): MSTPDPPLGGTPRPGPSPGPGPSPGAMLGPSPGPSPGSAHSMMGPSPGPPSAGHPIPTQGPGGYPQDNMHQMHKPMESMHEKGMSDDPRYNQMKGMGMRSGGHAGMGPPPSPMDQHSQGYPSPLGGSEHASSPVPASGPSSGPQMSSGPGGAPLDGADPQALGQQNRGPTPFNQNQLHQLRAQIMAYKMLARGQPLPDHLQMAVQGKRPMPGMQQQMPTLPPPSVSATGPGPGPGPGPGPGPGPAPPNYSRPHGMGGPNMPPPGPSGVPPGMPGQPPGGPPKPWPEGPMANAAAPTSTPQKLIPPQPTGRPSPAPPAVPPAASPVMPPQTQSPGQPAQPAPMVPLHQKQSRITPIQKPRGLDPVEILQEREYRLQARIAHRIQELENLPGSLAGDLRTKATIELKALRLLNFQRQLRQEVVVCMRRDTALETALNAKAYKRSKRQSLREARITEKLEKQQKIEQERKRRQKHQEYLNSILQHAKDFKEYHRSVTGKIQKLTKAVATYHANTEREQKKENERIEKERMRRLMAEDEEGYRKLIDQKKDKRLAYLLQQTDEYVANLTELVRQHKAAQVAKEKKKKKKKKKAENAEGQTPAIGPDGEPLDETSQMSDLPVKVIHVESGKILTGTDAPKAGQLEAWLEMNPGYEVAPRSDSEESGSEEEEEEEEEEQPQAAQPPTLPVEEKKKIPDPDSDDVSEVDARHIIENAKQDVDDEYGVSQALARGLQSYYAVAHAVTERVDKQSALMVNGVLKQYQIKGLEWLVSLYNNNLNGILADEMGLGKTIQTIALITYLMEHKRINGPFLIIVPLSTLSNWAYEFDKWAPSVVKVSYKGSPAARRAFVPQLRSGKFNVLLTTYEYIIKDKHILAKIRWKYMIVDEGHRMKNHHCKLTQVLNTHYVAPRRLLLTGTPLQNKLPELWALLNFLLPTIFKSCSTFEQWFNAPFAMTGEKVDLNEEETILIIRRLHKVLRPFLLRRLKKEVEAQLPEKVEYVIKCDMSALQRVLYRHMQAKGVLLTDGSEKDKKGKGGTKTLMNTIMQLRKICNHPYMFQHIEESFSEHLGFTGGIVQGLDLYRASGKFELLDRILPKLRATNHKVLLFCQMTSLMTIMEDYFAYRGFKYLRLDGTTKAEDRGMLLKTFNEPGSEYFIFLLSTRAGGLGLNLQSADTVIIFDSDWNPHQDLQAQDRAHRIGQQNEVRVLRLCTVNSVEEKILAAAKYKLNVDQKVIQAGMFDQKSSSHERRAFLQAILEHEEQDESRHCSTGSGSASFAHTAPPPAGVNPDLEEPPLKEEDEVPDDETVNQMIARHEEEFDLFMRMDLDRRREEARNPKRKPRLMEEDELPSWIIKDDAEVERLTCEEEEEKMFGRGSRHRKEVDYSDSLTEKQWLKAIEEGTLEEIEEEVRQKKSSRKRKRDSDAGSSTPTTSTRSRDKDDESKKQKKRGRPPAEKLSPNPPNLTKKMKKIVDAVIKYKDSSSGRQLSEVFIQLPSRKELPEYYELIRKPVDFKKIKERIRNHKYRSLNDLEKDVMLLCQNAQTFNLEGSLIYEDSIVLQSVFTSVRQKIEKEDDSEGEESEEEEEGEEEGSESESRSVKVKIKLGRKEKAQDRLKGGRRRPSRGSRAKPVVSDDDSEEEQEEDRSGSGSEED
SMARCA2, sequence (P51531 whole entry): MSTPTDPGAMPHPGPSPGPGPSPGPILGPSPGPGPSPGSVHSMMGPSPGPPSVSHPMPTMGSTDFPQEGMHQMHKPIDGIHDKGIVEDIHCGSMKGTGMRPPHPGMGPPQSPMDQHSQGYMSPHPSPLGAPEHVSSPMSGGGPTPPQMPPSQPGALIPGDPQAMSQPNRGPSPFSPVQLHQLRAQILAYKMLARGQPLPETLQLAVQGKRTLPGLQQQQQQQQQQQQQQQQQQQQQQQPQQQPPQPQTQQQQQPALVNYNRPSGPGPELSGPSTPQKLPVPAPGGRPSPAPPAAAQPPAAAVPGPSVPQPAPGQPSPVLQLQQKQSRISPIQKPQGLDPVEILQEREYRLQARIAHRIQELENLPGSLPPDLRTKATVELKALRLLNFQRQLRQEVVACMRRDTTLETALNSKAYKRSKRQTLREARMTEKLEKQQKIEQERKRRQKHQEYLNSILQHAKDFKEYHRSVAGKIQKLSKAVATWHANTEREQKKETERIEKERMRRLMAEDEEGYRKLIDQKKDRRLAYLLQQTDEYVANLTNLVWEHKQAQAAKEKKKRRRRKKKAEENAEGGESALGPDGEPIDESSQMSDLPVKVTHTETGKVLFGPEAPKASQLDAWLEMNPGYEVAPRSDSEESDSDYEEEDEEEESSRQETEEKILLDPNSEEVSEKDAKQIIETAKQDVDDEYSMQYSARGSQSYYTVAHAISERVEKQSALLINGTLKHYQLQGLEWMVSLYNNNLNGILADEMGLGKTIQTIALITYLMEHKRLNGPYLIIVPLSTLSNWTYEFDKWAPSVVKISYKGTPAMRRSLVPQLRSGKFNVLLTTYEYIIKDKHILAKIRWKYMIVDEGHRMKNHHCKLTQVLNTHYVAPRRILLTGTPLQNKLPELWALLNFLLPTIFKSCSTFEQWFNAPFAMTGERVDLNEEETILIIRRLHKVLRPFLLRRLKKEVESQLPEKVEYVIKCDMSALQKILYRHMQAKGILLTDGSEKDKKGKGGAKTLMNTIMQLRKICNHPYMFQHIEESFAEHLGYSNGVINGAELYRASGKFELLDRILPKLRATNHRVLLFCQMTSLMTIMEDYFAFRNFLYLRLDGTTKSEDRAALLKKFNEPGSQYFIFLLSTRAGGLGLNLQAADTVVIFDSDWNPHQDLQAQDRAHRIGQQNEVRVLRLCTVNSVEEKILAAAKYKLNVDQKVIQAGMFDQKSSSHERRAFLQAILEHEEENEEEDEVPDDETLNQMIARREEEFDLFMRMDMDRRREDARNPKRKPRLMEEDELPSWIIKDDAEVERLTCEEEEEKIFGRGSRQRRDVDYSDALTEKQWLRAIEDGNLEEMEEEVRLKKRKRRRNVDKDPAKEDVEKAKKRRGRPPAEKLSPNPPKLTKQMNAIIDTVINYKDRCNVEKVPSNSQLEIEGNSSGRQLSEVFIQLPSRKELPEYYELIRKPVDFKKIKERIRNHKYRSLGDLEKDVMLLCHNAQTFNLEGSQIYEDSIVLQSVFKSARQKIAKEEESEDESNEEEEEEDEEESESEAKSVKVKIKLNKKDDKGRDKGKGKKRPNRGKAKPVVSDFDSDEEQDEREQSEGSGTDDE

Regarding `Cc1ncsc1-c1ccc(CNC(=O)[C@@H]2C[C@@H](O)CN2C(=O)[C@@H](NC(=O)CCCCCN(C)Cc2cnc(N3CCC(c4c[nH]c5nnc(-c6ccccc6O)cc45)CC3)nc2)C(C)(C)C)cc1` [I-52, (2S,4R)-4-hydroxy-1-((S)-2-(6-(((2-(4-(3-(2-hydroxyphenyl)-7H-pyrrolo[2,3-c]pyridazin-5-yl)piperidin-1-yl)pyrimidin-5-yl)methyl)(methyl)amino)hexanamido)-3,3-dimethylbutanoyl)-N-(4-(4-methylthiazol-5-yl)benzyl)pyrrolidine-2-carboxamide], the values for the Dmax in assay [1] and in assay [2] were < 50% and 50 to 70%, respectively. Further, the DC50 in assay [1] and in assay [2] was > 1000 nM in each case.
As to `Cc1ncsc1-c1ccc(CNC(=O)[C@@H]2C[C@@H](O)CN2C(=O)[C@@H](NC(=O)[C@H]2CC[C@@H](c3cnc(N4CCC(c5c[nH]c6nnc(-c7ccccc7O)cc56)CC4)nc3)CC2)C(C)(C)C)cc1` [I-45, (2S,4R)-4-hydroxy-1-((S)-2-((1s,4R)-4-(2-(4-(3-(2-hydroxyphenyl)-7H-pyrrolo[2,3-c]pyridazin-5-yl)piperidin-1-yl)pyrimidin-5-yl)cyclohexanecarboxamido)-3,3-dimethylbutanoyl)-N-(4-(4-methylthiazol-5-yl)benzyl)pyrrolidine-2-carboxamide], in assay [1], the Dmax lay within 70 to 90% and the DC50 is 501 to 1000 nM. In addition, in assay [2], the Dmax is > 90% and the DC50 was < 100 nM.
For the compound `CN(CC#Cc1cnc(N2CCC(c3c[nH]c4nnc(-c5ccccc5O)cc34)CC2)nc1)CCCc1ccc2c(c1)n(C)c(=O)n2C1CCC(=O)NC1=O` (centres unmarked) [I-3], in assay [1], the Dmax is < 50% and the DC50 was > 1000 nM.
As for `CN(CCCc1cnc(N2CCC(c3c[nH]c4nnc(-c5ccccc5O)cc34)CC2)nc1)CCCc1ccc2c(c1)n(C)c(=O)n2C1CCC(=O)NC1=O` (centres unmarked) [I-2], in assay [1], the Dmax is < 50% and the DC50 is > 1000 nM.
Regarding `Cc1ncsc1-c1ccc(CNC(=O)[C@@H]2C[C@@H](O)CN2C(=O)[C@@H](NC(=O)CN2CCC(c3cc(N4CCC(c5c[nH]c6nnc(-c7ccccc7O)cc56)CC4)ncn3)CC2)C(C)(C)C)cc1` [I-54, (2S,4R)-4-hydroxy-1-((S)-2-(2-(4-(6-(4-(3-(2-hydroxyphenyl)-7H-pyrrolo[2,3-c]pyridazin-5-yl)piperidin-1-yl)pyrimidin-4-yl)piperidin-1-yl)acetamido)-3,3-dimethylbutanoyl)-N-(4-(4-methylthiazol-5-yl)benzyl)pyrrolidine-2-carboxamide], the greatest degradation seen (Dmax) in assay [1] is < 50%; in assay [2], > 90%. Moreover, the DC50 in assay [1] and in assay [2] was > 1000 nM throughout.
As for `NCC#Cc1cnc(N2CCC(c3c[nH]c4nnc(-c5ccccc5O)cc34)CC2)nc1` [I-55, 2-(5-(1-(5-(3-aminoprop-1-yn-1-yl)pyrimidin-2-yl)piperidin-4-yl)-7H-pyrrolo[2,3-c]pyridazin-3-yl)phenol], the greatest degradation seen (Dmax) is < 50% in assay [1] and > 90% in assay [2]. For the same compound, the DC50 in assay [1] and in assay [2] was > 1000 nM throughout.
For the compound `Cc1ncsc1-c1ccc(CNC(=O)[C@@H]2C[C@@H](O)CN2C(=O)[C@@H](NC(=O)C2(F)CC2)C(C)(C)C)c(OCCCCCCCCN2CCC(c3c[nH]c4nnc(-c5ccccc5O)cc34)CC2)c1` [I-49], in assay [1], the greatest degradation seen (Dmax) was < 50% and the DC50 was > 1000 nM. Also, in assay [2], the Dmax is 70 to 90% and the DC50 is > 1000 nM.
Regarding `Cc1ncsc1-c1ccc(CNC(=O)[C@@H]2C[C@@H](O)CN2C(=O)[C@@H](NC(=O)C2(F)CC2)C(C)(C)C)c(OCCN2CCC(c3c[nH]c4nnc(-c5ccccc5O)cc34)CC2)c1` [I-47, (2S,4R)-1-((S)-2-(1-fluorocyclopropanecarboxamido)-3,3-dimethylbutanoyl)-4-hydroxy-N-(2-(2-(4-(3-(2-hydroxyphenyl)-7H-pyrrolo[2,3-c]pyridazin-5-yl)piperidin-1-yl)ethoxy)-4-(4-methylthiazol-5-yl)benzyl)pyrrolidine-2-carboxamide], in assay [1], the Dmax was < 50% and the DC50 is > 1000 nM. Further, in assay [2], the greatest degradation seen (Dmax) is 70 to 90% and the DC50 is > 1000 nM.
On to `Cc1ncsc1-c1ccc(CNC(=O)[C@@H]2C[C@@H](O)CN2C(=O)[C@@H](NC(=O)CN2CCC(c3cnc(N4CCC(c5c[nH]c6nnc(-c7ccccc7O)cc56)CC4)nc3)CC2)C(C)(C)C)cc1` [I-53], for which the Dmax in assay [1] and in assay [2] was 70 to 90% in each case. Also, the figures for the DC50 in assay [1] and in assay [2] were 501 to 1000 nM and < 100 nM, respectively.
Regarding `Cc1ncsc1-c1ccc(CNC(=O)[C@@H]2C[C@@H](O)CN2C(=O)[C@@H](NC(=O)C2(F)CC2)C(C)(C)C)c(OCCCCCCN2CCC(c3c[nH]c4nnc(-c5ccccc5O)cc34)CC2)c1` [I-48], in assay [1], the Dmax is < 50% and the half-maximal degradation concentration (DC50) was > 1000 nM. Also, in assay [2], the Dmax is < 50% and the DC50 lay within 501 to 1000 nM.
As for `Cc1ncsc1-c1ccc(CNC(=O)[C@@H]2C[C@@H](O)CN2C(=O)[C@@H](NC(=O)CCCN(C)Cc2cnc(N3CCC(c4c[nH]c5nnc(-c6ccccc6O)cc45)CC3)nc2)C(C)(C)C)cc1` [I-51], in assay [1], the Dmax is < 50% and the DC50 is > 1000 nM. In assay [2], the Dmax is < 50% and the DC50 is > 1000 nM.
As to `Cc1ncsc1-c1ccc(CNC(=O)[C@@H]2C[C@@H](O)CN2C(=O)[C@@H](NC(=O)CN(C)Cc2cnc(N3CCC(c4c[nH]c5nnc(-c6ccccc6O)cc45)CC3)nc2)C(C)(C)C)cc1` [I-50], in assay [1], the greatest degradation seen (Dmax) was < 50% and the DC50 is > 1000 nM. Also, in assay [2], the Dmax is < 50% and the DC50 is > 1000 nM.
